Test results taken from patent US10370343B2, “[6,6] Fused bicyclic HDAC8 inhibitors” (FORMA Therapeutics, Inc., priority 2015, dated 2019).

Each compound was assayed against T1, Recombinant N-terminal GST tag full-length human HDAC8 (Homo sapiens, UniProt Q9BY41) (assay: HDAC8 probe binding assay, time resolved fluorescence (TRF) format). Settings: compounds grouped by IC50 range (Table 2).
T1 construct: Recombinant N-terminal GST tag full-length human HDAC8; purchased SignalChem H90-30G-1000; host or cells: baculovirus in Sf9 insect cells
T1 sequence (Q9BY41 1-377): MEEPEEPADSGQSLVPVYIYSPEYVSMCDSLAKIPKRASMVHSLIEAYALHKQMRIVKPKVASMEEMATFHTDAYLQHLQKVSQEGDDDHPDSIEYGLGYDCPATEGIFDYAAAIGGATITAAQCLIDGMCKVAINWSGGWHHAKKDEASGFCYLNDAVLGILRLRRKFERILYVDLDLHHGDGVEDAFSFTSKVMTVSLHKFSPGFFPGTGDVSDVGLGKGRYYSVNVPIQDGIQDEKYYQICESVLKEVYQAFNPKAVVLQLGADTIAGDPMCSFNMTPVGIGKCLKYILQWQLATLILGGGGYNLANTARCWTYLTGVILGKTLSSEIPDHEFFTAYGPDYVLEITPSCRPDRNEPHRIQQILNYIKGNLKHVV
Method: The HDAC8 probe binding assay was performed using a time resolved fluorescence (TRF) assay format. Recombinant N-terminal GST tag full-length human HDAC8 was expressed and purified from baculovirus in Sf9 insect cells (SignalChem, #[…]-1000). […] Plates were incubated for 16 hours at room temperature before time resolved fluorescence was read on the Envision (Excitation at 340 nm, and Emission at 485 nm and 535 nm, Perkin Elmer). Data from HDAC8 Assays were reported as percent inhibition (inh) compared with control wells based on the following equation: % inh=1-((FLU-AveLow)/(AveHigh-AveLow)) where FLU=measured time resolved fluorescence. AveLow=average time resolved fluorescence of no enzyme control (n=32). AveHigh=average time resolved fluorescence of DMSO control (n=32). IC50 values were determined by curve fitting of the standard 4 parameter logistic fitting algorithm included in the Activity Base software package: IDBS XE Designer Model205. Data is fitted using the Levenburg Marquardt algorithm. Ranges of IC50 values for compounds of the invention are disclosed in Table 2: Table 2. provides the compounds arranged according to […] determined in a time resolved fluorescence (TRF) assay. The compounds are separated into four groups: […]

Compound | IC50 [nM]
CC1(C)Oc2ccc(C(=O)NO)cc2N(Cc2ccc(C(F)(F)F)cc2F)C1=O [Compound I-321, 4-(2-fluoro-4-(trifluoromethyl)benzyl)-N-hydroxy-2,2-dimethyl-3-oxo-3,4-dihydro-2H-benzo[b][1,4]oxazine-6-carboxamide] | ≤ 25
O=C(NO)c1ccc2c(c1)N(Cc1ccc(Cl)c(F)c1)C(=O)CO2 [Compound I-346, 4-(4-chloro-3-fluorobenzyl)-N-hydroxy-3-oxo-3,4-dihydro-2H-benzo[b][1,4]oxazine-6-carboxamide] | ≤ 25
COCCOc1cccc(CN2C(=O)COc3ccc(C(=O)NO)cc32)c1 [Compound I-197, N-hydroxy-4-(3-(2-methoxyethoxy)benzyl)-3-oxo-3,4-dihydro-2H-benzo[b][1,4]oxazine-6-carboxamide] | ≤ 25
O=C(NO)c1ccc2c(c1)N(Cc1cnc(-c3ccccc3)o1)C(=O)CO2 [Compound I-178, N-hydroxy-3-oxo-4-((2-phenyloxazol-5-yl)methyl)-3,4-dihydro-2H-benzo[b][1,4]oxazine-6-carboxamide] | ≤ 25
O=C(NO)c1ccc2c(c1)N(Cc1ccc(N3CCCC3=O)cc1)C(=O)CO2 [Compound I-188, N-hydroxy-3-oxo-4-(4-(2-oxopyrrolidin-1-yl)benzyl)-3,4-dihydro-2H-benzo[b][1,4]oxazine-6-carboxamide] | 25 to 100
O=C(NO)c1ccc2c(c1)N(Cc1ccc(Cl)c(C(F)(F)F)c1)C(=O)CO2 [Compound I-345, 4-(4-chloro-3-(trifluorornethyl)benzyl)-N-hydroxy-3-oxo-3,4-dihydro-2H-benzo[b][1,4]oxazine-6-carboxamide] | ≤ 25
O=C(NO)c1ccc2c(c1)N(Cc1cccc(Oc3ccccc3)c1)C(=O)CO2 [Compound I-220, N-hydroxy-3-oxo-4-(3-phenoxybenzyl)-3,4-dihydro-2H-benzo[b][1,4]oxazine-6-carboxamide] | ≤ 25
O=C(NO)c1ccc2c(c1)N(Cc1ccc(Cl)cc1F)C(=O)CO2 [Compound I-344, 4-(4-chloro-2-fluorobenzyl)-N-hydroxy-3-oxo-3,4-dihydro-2H-benzo[b][1,4]oxazine-6-carboxamide] | ≤ 25
O=C(NO)c1ccc2c(c1)N(Cc1ccc(N3CCCC3)cc1)C(=O)CO2 [Compound I-176, N-hydroxy-3-oxo-4-(4-(pyrrolidin-1-yl)benzyl)-3,4-dihydro-2H-benzo[b][1,4]oxazine-6-carboxamide] | ≤ 25
Cc1ccc2nc(CN3C(=O)COc4ccc(C(=O)NO)cc43)sc2n1 [Compound I-210, N-hydroxy-4-((5-methylthiazolo[5,4-b]pyridin-2-yl)methyl)-3-oxo-3,4-dihydro-2H-benzo[b][1,4]oxazine-6-carboxamide] | ≤ 25
Cn1cc2cc(CN3C(=O)COc4ccc(C(=O)NO)cc43)ccc2n1 [Compound I-238, N-hydroxy-4-((2-methyl-2H-indazol-5-yl)methyl)-3-oxo-3,4-dihydro-2H-benzo[b][1,4]oxazine-6-carboxamide] | ≤ 25
O=C(NO)c1ccc2c(c1)N(Cc1n[nH]c3ccccc13)C(=O)CO2 [Compound I-203, 4-((1H-indazol-3-yl)methyl)-N-hydroxy-3-oxo-3,4-dihydro-2H-benzo[b][1,4]oxazine-6-carboxamide] | 25 to 100
CC1(C)Oc2ccc(C(=O)NO)cc2N(Cc2cccc(OC(F)(F)F)c2)C1=O [Compound I-319, N-hydroxy-2,2-dimethyl-3-oxo-4-(3-(trifluoromethoxy)benzyl)-3,4-dihydro-2H-benzo[b][1,4]oxazine-6-carboxamide] | 25 to 100
O=C(NO)c1ccc2c(c1)N(Cc1cccc3ccccc13)C(=O)CO2 [Compound I-230, N-hydroxy-4-(naphthalen-1-ylmethyl)-3-oxo-3,4-dihydro-2H-benzo[b][1,4]oxazine-6-carboxamide] | 25 to 100
O=C(NO)c1ccc2c(c1)N(Cc1nc3ccccc3s1)C(=O)CO2 [Compound I-289, 4-(benzo[d]thiazol-2-ylmethyl)-N-hydroxy-3-oxo-3,4-dihydro-2H-benzo[b][1,4]oxazine-6-carboxamide] | ≤ 25
CN1CCCc2cc(CN3C(=O)COc4ccc(C(=O)NO)cc43)ccc21 [Compound I-182, N-hydroxy-4-((1-methyl-1,2,3,4-tetrahydroquinolin-6-yl)methyl)-3-oxo-3,4-dihydro-2H-benzo[b][1,4]oxazine-6-carboxamide] | 25 to 100

Compound | IC50 [nM]
CC(C)NC(=O)c1ccc(CN2C(=O)COc3ccc(C(=O)NO)cc32)cc1 [Compound I-369, N-hydroxy-4-(4-(isopropylcarbamoyl)benzyl)-3-oxo-3,4-dihydro-2H-benzo[b][1,4]oxazine-6-carboxamide] | 25 to 100
CC(=O)Nc1ccc(CN2C(=O)COc3ccc(C(=O)NO)cc32)cc1 [Compound I-186, 4-(4-acetamidobenzyl)-N-hydroxy-3-oxo-3,4-dihydro-2H-benzo[b][1,4]oxazine-6-carboxamide] | ≤ 25
O=C(NO)c1ccc2c(c1)N(Cc1cc(Cl)ccc1F)C(=O)CO2 [Compound I-348, 4-(5-chloro-2-fluorobenzyl)-N-hydroxy-3-oxo-3,4-dihydro-2H-benzo[b][1,4]oxazine-6-carboxamide] | ≤ 25
O=C(NO)c1ccc2c(c1)N(Cc1ccc(-n3cncn3)cc1)C(=O)CO2 [Compound I-175, 4-(4-(1H-1,2,4-triazol-1-yl)benzyl)-N-hydroxy-3-oxo-3,4-dihydro-2H-benzo[b][1,4]oxazine-6-carboxamide] | ≤ 25
CC1(C)Oc2ccc(C(=O)NO)cc2N(Cc2c(Cl)cccc2Cl)C1=O [Compound I-299, 4-(2,6-dichlorobenzyl)-N-hydroxy-2,2-dimethyl-3-oxo-3,4-dihydro-2H-benzo[b][1,4]oxazine-6-carboxamide] | 25 to 100
O=C(NO)c1ccc2c(c1)N(Cc1cnc3c(c1)OCCO3)C(=O)CO2 [Compound I-173, 4-((2,3-dihydro-[1,4]dioxino[2,3-b]pyridin-7-yl)methyl)-N-hydroxy-3-oxo-3,4-dihydro-2H-benzo[b][1,4]oxazine-6-carboxamide] | 25 to 100
Cc1ccc2nc(CN3C(=O)COc4ccc(C(=O)NO)cc43)cn2c1 [Compound I-365, N-hydroxy-4-((6-methylimidazo[1,2-a]pyridin-2-yl)methyl)-3-oxo-3,4-dihydro-2H-benzo[b][1,4]oxazine-6-carboxamide] | 25 to 100
O=C(NO)c1ccc2c(c1)N(Cc1ccn3ccnc3c1)C(=O)CO2 [Compound I-338, N-hydroxy-4-(imidazo[1,2-a]pyridin-7-ylmethyl)-3-oxo-3,4-dihydro-2H-benzo[b][1,4]oxazine-6-carboxamide] | ≤ 25
COc1ccc(CN2CC(C(=O)N(C)C)Oc3ccc(C(=O)NO)cc32)cc1 (centres unmarked) [Compound I-169, N6-hydroxy-4-(4-methoxybenzyl)-N2,N2-dimethyl-3,4-dihydro-2H-benzo[b][1,4]oxazine-2,6-dicarboxamide] | 25 to 100
CNC(=O)C1CN(Cc2ccc(OC)cc2)c2cc(C(=O)NO)ccc2O1 (centres unmarked) [Compound I-170, N^6-hydroxy-4-(4-methoxybenzyl)-N^2-methyl-3,4-dihydro-2H, benzo[b][1,4]oxazine-2,6-dicarboxamide] | 25 to 100
O=C(NO)c1ccc2c(c1)N(Cc1ccc(C(=O)N3CCCC3)cc1)C(=O)CO2 [Compound I-192, N-hydroxy-3-oxo-4-(4-(pyrrolidine-1-carbonyl)benzyl)-3,4-dihydro-2H-benzo[b][1,4]oxazine-6-carboxamide] | 25 to 100
COc1ccc2nc(CN3C(=O)COc4ccc(C(=O)NO)cc43)sc2n1 [Compound I-211, N-hydroxy-4-((5-methoxythiazolo[5,4-b]pyridin-2-yl)methyl)-3-oxo-3,4-dihydro-2H-benzo[b][1,4]oxazine-6-carboxamide] | ≤ 25
COc1ccc(CN2C(=O)COc3ccc(C(=O)NO)cc32)cn1 [Compound I-332, N-hydroxy-4-((6-methoxypyridin-3-yl)methyl)-3-oxo-3,4-dihydro-2H-benzo[b][1,4]oxazine-6-carboxamide] | ≤ 25
O=C(NO)c1ccc2c(c1)N(Cc1ccncc1)C(=O)CO2 [Compound I-215, N-hydroxy-3-oxo-4-(pyridin-4-ylmethyl)-3,4-dihydro-2H-benzo[b][1,4]oxazine-6-carboxamide] | 25 to 100
COc1ccc(F)c(CN2C(=O)COc3ccc(C(=O)NO)cc32)c1 [Compound I-371, 4-(2-fluoro-5-methoxybenzyl)-N-hydroxy-3-oxo-3,4-dihydro-2H-benzo[b][1,4]oxazine-6-carboxamide] | ≤ 25
CC1(C)Oc2ccc(C(=O)NO)cc2N(Cc2cccc(Oc3ccc(Cl)cc3)c2)C1=O [Compound I-227, 4-(3-(4-chlorophenoxy)benzyl)-N-hydroxy-2,2-dimethyl-3-oxo-3,4-dihydro-2H-benzo[b][1,4]oxazine-6-carboxamide] | ≤ 25
